Measured values taken from patent publication US8461107B2 (Merck Sharp & Dohme Corp., priority 2008, dated 2013).

Biological target: T1, HCV genotype 1b (BK) NS3 modified with a R155K mutation (Hepatitis C virus genotype 1b, UniProt P26663, R1181K)
T1 construct: HCV genotype 1b (BK) NS3 modified with a R155K mutation
Assay: HCV NS3 protease time-resolved fluorescence (TRF) assay, NS3 protease 1b R155K Ki activity
Assay type: biochemical
Details: HCV genotype 1b (BK) NS3 with R155K mutation; TRF peptide substrate 100 nM; Ki derived from IC50
Summary of the method: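 Pre-incubation of NS3/NS4A protease (genotype 1b BK, R155K) with inhibitor for 30 min, then 1 h at room temperature with 100 nM TRF peptide substrate in pH 7.5 HEPES buffer with 10 mM DTT. Reaction quenched with pH 5.5 MES; time-resolved fluorescence read (ex 340/em 615 nm). Ki derived from four-parameter IC50 fit via IC50=Ki(1+[S]/KM).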

SMILES	Ki
CC[C@@H]1C[C@]1(NC(=O)[C@@H]1C[C@@H]2CN1C(=O)[C@H](C(C)(C)C)NC(=O)O[C@@H]1CCC[C@H]1C/C=C/CCn1c(cc3cc(Cl)ccc3c1=O)O2)C(=O)NS(=O)(=O)C1CC1 [(3aR,7S,10S,12R,23E,25aS)-7-tert-butyl-16-chloro-N-((1R,2R)-1-{[(cyclopropylsulfonyl)amino]carbonyl}-2-ethylcyclopropyl)-5,8,19-trioxo-1,2,3,3a,5,6,7,8,11,12,21,22,25,25a-tetradecahydro-10H,19H-9,12-methanocyclopenta[18,19][1,10,3,6,12]dioxatriazacyclononadecino[12,11-b]isoquinoline-10-carboxamide]	0.1 to 0.5 nM
C=C[C@@H]1C[C@]1(NC(=O)[C@@H]1C[C@@H]2CN1C(=O)[C@H](C(C)(C)C)NC(=O)O[C@@H]1CCC[C@H]1C/C=C/CCn1c(cc3cc(Cl)ccc3c1=O)O2)C(=O)NS(=O)(=O)C1CC1 [(3aR,7S,10S,12R,23E,25aS)-7-tert-butyl-16-chloro-N-((1R,2S)-1-{[(cyclopropylsulfonyl)amino]carbonyl}-2-vinylcyclopropyl)-5,8,19-trioxo-1,2,3,3a,5,6,7,8,11,12,21,22,25,25a-tetradecahydro-10H,19H-9,12-methanocyclopenta[18,19][1,10,3,6,12]dioxatriazacyclononadecino[12,11-b]isoquinoline-10-carboxamide]	< 0.1 nM
C=C[C@@H]1C[C@]1(NC(=O)[C@@H]1C[C@@H]2CN1C(=O)[C@H](C(C)(C)C)NC(=O)O[C@@H]1CCC[C@H]1C/C=C/CCn1c(cc3ccccc3c1=O)O2)C(=O)NS(=O)(=O)C1CC1 [(3aR,7S,10S,12R,23E,25aS)-7-tert-butyl-N-((1R,2S)-1-{[(cyclopropylsulfonyl)amino]carbonyl}-2-vinylcyclopropyl)-5,8,19-trioxo-1,2,3,3a,5,6,7,8,11,12,21,22,25,25a-tetradecahydro-10H,19H-9,12-methanocyclopenta[18,19][1,10,3,6,12]dioxatriazacyclononadecino[12,11-b]isoquinoline-10-carboxamide]	< 0.1 nM
C=C[C@@H]1C[C@]1(NC(=O)[C@@H]1C[C@@H]2CN1C(=O)[C@H](C(C)(C)C)NC(=O)O[C@@H]1CCC[C@H]1C/C=C/CCn1c(cc3cc(OC)ccc3c1=O)O2)C(=O)NS(=O)(=O)C1CC1 [(3aR,7S,10S,12R,23E,25aS)-7-tert-butyl-N-((1R,2S)-1-{[(cyclopropylsulfonyl)amino]carbonyl}-2-vinylcyclopropyl)-16-methoxy-5,8,19-trioxo-1,2,3,3a,5,6,7,8,11,12,21,22,25,25a-tetradecahydro-10H,19H-9,12-methanocyclopenta[18,19][1,10,3,6,12]dioxatriazacyclononadecino[12,11-b]isoquinoline-10-carboxamide]	0.1 to 0.5 nM
CC[C@@H]1C[C@]1(NC(=O)[C@@H]1C[C@@H]2CN1C(=O)[C@H](C1CCCCC1)NC(=O)O[C@@H]1CCC[C@H]1C/C=C/CCn1c(cc3cc(Cl)ccc3c1=O)O2)C(=O)NS(=O)(=O)C1CC1 [(3aR,7S,10S,12R,23E,25aS)-16-chloro-7-cyclohexyl-N-((1R,2R)-1-{[(cyclopropylsulfonyl)amino]carbonyl}-2-ethylcyclopropyl)-5,8,19-trioxo-1,2,3,3a,5,6,7,8,11,12,21,22,25,25a-tetradecahydro-10H,19H-9,12-methanocyclopenta[18,19][1,10,3,6,12]dioxatriazacyclononadecino[12,11-b]isoquinoline-10-carboxamide]	0.1 to 0.5 nM
C=C[C@@H]1C[C@]1(NC(=O)[C@@H]1C[C@@H]2CN1C(=O)[C@H](C1CCCCC1)NC(=O)O[C@@H]1CCC[C@H]1C/C=C/CCn1c(cc3cc(Cl)ccc3c1=O)O2)C(=O)NS(=O)(=O)C1CC1 [(3aR,7S,10S,12R,23E,25aS)-16-chloro-7-cyclohexyl-N-((1R,2S)-1-{[(cyclopropylsulfonyl)amino]carbonyl}-2-vinylcyclopropyl)-5,8,19-trioxo-1,2,3,3a,5,6,7,8,11,12,21,22,25,25a-tetradecahydro-10H,19H-9,12-methanocyclopenta[18,19][1,10,3,6,12]dioxatriazacyclononadecino[12,11-b]isoquinoline-10-carboxamide]	< 0.1 nM
C=C[C@@H]1C[C@]1(NC(=O)[C@@H]1C[C@@H]2CN1C(=O)[C@H](C1CCCC1)NC(=O)O[C@@H]1CCC[C@H]1C/C=C/CCn1c(cc3cc(Cl)ccc3c1=O)O2)C(=O)NS(=O)(=O)C1CC1 [(3aR,7S,10S,12R,23E,25aS)-16-chloro-7-cyclopentyl-N-((1R,2S)-1-{[(cyclopropylsulfonyl)amino]carbonyl}-2-vinylcyclopropyl)-5,8,19-trioxo-1,2,3,3a,5,6,7,8,11,12,21,22,25,25a-tetradecahydro-10H,19H-9,12-methanocyclopenta[18,19][1,10,3,6,12]dioxatriazacyclononadecino[12,11-b]isoquinoline-10-carboxamide]	< 0.1 nM
CC[C@@H]1C[C@]1(NC(=O)[C@@H]1C[C@@H]2CN1C(=O)[C@H](C1CCCC1)NC(=O)O[C@@H]1CCC[C@H]1CCCCCn1c(nc3ccccc3c1=O)O2)C(=O)NS(=O)(=O)C1CC1 [(3aR,7S,10S,12R,25aR)-7-cyclopentyl-N-((1R,2R)-1-{[(cyclopropylsulfonyl)amino]carbonyl}-2-ethylcyclopropyl)-5,8,19-trioxo-1,2,3,3a,5,6,7,8,11,12,21,22,23,24,25,25a-hexadecahydro-10H,19H-9,12-methanocyclopenta[18,19][1,10,3,6,12]dioxatriazacyclononadecino[11,12-b]quinazoline-10-carboxamide]	0.1 to 0.5 nM
CC[C@@H]1C[C@]1(NC(=O)[C@@H]1C[C@@H]2CN1C(=O)[C@H](C1CCCC1)NC(=O)O[C@@H]1CCC[C@H]1CCCCCn1c(cc3ccccc3c1=O)O2)C(=O)NS(=O)(=O)C1CC1 [(3aR,7S,10S,12R,25aR)-7-cyclopentyl-N-((1R,2R)-1-{[(cyclopropylsulfonyl)amino]carbonyl}-2-ethylcyclopropyl)-5,8,19-trioxo-1,2,3,3a,5,6,7,8,11,12,21,22,23,24,25,25a-hexadecahydro-10H,19H-9,12-methanocyclopenta[18,19][1,10,3,6,12]dioxatriazacyclononadecino[12,11-b]isoquinoline-10-carboxamide]	0.1 to 0.5 nM
CC[C@@H]1C[C@]1(NC(=O)[C@@H]1C[C@@H]2CN1C(=O)[C@H](C1CCCC1)NC(=O)O[C@@H]1CCC[C@H]1CCCCCn1c(nc3cc(-c4ccccc4)ccc3c1=O)O2)C(=O)NS(=O)(=O)C1CC1 [(3aR,7S,10S,12R,25aR)-7-cyclopentyl-N-((1R,2R)-1-{[(cyclopropylsulfonyl)amino]carbonyl}-2-ethylcyclopropyl)-5,8,19-trioxo-16-phenyl-1,2,3,3a,5,6,7,8,11,12,21,22,23,24,25,25a-hexadecahydro-10H,19H-9,12-methanocyclopenta[18,19][1,10,3,6,12]dioxatriazacyclononadecino[11,12-b]quinazoline-10-carboxamide]	0.1 to 0.5 nM
CC[C@@H]1C[C@]1(NC(=O)[C@@H]1C[C@@H]2CN1C(=O)[C@H](C1CCCC1)NC(=O)O[C@@H]1CCC[C@H]1CCCCCn1c(nc3cc(OC)ccc3c1=O)O2)C(=O)NS(=O)(=O)C1CC1 [(3aR,7S,10S,12R,25aR)-7-cyclopentyl-N-((1R,2R)-1-{[(cyclopropylsulfonyl)amino]carbonyl}-2-ethylcyclopropyl)-16-methoxy-5,8,19-trioxo-1,2,3,3a,5,6,7,8,11,12,21,22,23,24,25,25a-hexadecahydro-10H,19H-9,12-methanocyclopenta[18,19][1,10,3,6,12]dioxatriazacyclononadecino[11,12-b]quinazoline-10-carboxamide]	0.1 to 0.5 nM
CC[C@@H]1C[C@]1(NC(=O)[C@@H]1C[C@@H]2CN1C(=O)[C@H](C1CCCC1)NC(=O)O[C@@H]1CCC[C@H]1CCCCCn1c(cc3cc(OC)ccc3c1=O)O2)C(=O)NS(=O)(=O)C1CC1 [(3aR,7S,10S,12R,25aR)-7-cyclopentyl-N-((1R,2R)-1-{[(cyclopropylsulfonyl)amino]carbonyl}-2-ethylcyclopropyl)-16-methoxy-5,8,19-trioxo-1,2,3,3a,5,6,7,8,11,12,21,22,23,24,25,25a-hexadecahydro-10H,19H-9,12-methanocyclopenta[18,19][1,10,3,6,12]dioxatriazacyclononadecino[12,11-b]isoquinoline-10-carboxamide]	0.1 to 0.5 nM
CC[C@@H]1C[C@]1(NC(=O)[C@@H]1C[C@@H]2CN1C(=O)[C@H](C1CCCC1)NC(=O)O[C@@H]1CCC[C@H]1CCCCCn1c(nc3cccc(OC)c3c1=O)O2)C(=O)NS(=O)(=O)C1CC1 [(3aR,7S,10S,12R,25aR)-7-cyclopentyl-N-((1R,2R)-1-{[(cyclopropylsulfonyl)amino]carbonyl}-2-ethylcyclopropyl)-18-methoxy-5,8,19-trioxo-1,2,3,3a,5,6,7,8,11,12,21,22,23,24,25,25a-hexadecahydro-10H,19H-9,12-methanocyclopenta[18,19][1,10,3,6,12]dioxatriazacyclononadecino[11,12-b]quinazoline-10-carboxamide]	0.5 to 1 nM
C=C[C@@H]1C[C@]1(NC(=O)[C@@H]1C[C@@H]2CN1C(=O)[C@H](C1CCCC1)NC(=O)O[C@@H]1CCC[C@H]1CCCCCn1c(nc3ccccc3c1=O)O2)C(=O)NS(=O)(=O)C1CC1 [(3aR,7S,10S,12R,25aR)-7-cyclopentyl-N-((1R,2S)-1-{[(cyclopropylsulfonyl)amino]carbonyl}-2-vinylcyclopropyl)-5,8,19-trioxo-1,2,3,3a,5,6,7,8,11,12,21,22,23,24,25,25a-hexadecahydro-10H,19H-9,12-methanocyclopenta[18,19][1,10,3,6,12]dioxatriazacyclononadecino[11,12-b]quinazoline-10-carboxamide]	< 0.1 nM
